Data published in ChEMBL document CHEMBL5291721, “A preclinical secondary pharmacology resource illuminates target-adverse drug reaction associations of marketed drugs” (Nat Commun, 2023).

Experiments:
[1] = molecular target: T1, Gastrin/cholecystokinin type B receptor (Homo sapiens, UniProt P32239)
T1 sequence (P32239 whole entry): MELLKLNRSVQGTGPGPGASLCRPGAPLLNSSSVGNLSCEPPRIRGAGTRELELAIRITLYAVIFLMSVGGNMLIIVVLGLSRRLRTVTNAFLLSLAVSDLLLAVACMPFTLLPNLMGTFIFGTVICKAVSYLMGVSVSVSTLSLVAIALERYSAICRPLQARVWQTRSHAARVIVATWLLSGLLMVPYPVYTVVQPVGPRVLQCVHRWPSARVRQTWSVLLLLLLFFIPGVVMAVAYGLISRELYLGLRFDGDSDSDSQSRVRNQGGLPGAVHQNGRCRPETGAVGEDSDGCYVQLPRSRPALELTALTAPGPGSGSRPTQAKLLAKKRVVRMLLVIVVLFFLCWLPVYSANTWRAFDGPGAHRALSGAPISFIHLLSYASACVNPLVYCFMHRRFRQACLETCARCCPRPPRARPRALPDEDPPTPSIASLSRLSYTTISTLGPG

[2] = molecular target: T2, Gamma-aminobutyric acid receptor subunit alpha-1 (Rattus norvegicus, UniProt P62813)
[3] = molecular target: T3, Alpha-1A adrenergic receptor (Homo sapiens, UniProt P35348); format: functional, cell-based
T3 sequence (P35348 whole entry): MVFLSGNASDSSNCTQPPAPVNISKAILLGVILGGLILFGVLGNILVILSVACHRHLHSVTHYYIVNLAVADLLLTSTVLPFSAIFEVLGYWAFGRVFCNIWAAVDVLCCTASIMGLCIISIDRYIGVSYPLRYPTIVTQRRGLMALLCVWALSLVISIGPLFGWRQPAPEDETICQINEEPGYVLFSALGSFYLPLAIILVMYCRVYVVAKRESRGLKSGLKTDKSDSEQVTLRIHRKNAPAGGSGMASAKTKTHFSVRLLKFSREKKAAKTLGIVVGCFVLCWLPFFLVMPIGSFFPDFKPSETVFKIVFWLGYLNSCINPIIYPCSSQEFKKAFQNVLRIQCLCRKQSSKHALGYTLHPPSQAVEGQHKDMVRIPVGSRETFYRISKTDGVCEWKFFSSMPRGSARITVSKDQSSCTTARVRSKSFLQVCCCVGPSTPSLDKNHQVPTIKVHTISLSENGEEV

[4] = molecular target: T4, 5-hydroxytryptamine receptor 1A (Homo sapiens, UniProt P08908); format: functional, cell-based
T4 sequence (P08908 whole entry): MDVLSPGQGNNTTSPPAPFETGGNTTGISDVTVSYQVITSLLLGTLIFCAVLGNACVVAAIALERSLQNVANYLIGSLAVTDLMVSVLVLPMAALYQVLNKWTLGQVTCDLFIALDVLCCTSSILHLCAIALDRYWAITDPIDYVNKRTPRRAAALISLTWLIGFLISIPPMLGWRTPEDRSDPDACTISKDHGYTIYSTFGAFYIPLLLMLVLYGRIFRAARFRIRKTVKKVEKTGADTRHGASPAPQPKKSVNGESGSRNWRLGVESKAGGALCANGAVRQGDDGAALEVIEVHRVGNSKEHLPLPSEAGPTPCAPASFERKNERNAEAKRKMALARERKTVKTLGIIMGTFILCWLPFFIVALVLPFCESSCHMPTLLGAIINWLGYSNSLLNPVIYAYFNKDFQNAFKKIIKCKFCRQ

Vasopressin V2 receptor = Vasopressin V2 receptor (Homo sapiens, UniProt P30518)
[5] = molecular target: Kappa-type opioid receptor (Homo sapiens, UniProt P41145)
Cannabinoid receptor 1 = Cannabinoid receptor 1 (Homo sapiens, UniProt P21554); format: functional, cell-based
[6] = molecular target: T2, Gamma-aminobutyric acid receptor subunit alpha-1; format: functional
[7] = molecular target: 5-hydroxytryptamine receptor 2B (Homo sapiens, UniProt P41595); format: functional, cell-based
Endothelin-1 receptor = molecular target: T5, Endothelin-1 receptor (Homo sapiens, UniProt P25101)
T5 sequence (P25101 whole entry): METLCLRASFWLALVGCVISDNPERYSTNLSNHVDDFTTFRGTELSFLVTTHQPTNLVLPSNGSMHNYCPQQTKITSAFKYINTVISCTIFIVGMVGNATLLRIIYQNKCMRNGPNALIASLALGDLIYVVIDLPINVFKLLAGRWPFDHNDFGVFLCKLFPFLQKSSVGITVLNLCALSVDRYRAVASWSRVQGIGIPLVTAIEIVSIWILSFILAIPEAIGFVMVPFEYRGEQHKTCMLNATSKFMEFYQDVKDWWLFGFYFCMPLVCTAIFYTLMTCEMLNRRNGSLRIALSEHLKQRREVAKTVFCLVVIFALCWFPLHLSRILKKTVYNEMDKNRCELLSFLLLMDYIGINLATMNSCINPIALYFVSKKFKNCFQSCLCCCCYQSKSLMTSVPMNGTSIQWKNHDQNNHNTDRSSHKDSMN

[8] = molecular target: Muscarinic acetylcholine receptor M3 (Homo sapiens, UniProt P20309)
[9] = molecular target: T6, Alpha-2C adrenergic receptor (Homo sapiens, UniProt P18825); format: functional
T6 sequence (P18825 whole entry): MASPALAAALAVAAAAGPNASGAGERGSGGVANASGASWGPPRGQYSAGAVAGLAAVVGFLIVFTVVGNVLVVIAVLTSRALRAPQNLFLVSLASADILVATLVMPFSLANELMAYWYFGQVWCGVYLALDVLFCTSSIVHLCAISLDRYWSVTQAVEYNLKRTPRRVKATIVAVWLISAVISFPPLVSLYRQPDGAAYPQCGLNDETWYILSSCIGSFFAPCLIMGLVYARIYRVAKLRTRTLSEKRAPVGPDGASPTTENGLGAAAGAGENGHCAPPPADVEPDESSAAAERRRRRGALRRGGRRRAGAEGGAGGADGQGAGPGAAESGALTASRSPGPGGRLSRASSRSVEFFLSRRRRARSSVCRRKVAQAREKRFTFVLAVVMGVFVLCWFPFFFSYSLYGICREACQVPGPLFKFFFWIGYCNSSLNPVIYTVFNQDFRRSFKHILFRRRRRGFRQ

D(3) dopamine receptor = D(3) dopamine receptor (Homo sapiens, UniProt P35462)
[10] = molecular target: Neuronal acetylcholine receptor subunit alpha-4 (Homo sapiens, UniProt P43681)
[11] = molecular target: Sodium-dependent serotonin transporter (Homo sapiens, UniProt P31645)
[12] = molecular target: 5-hydroxytryptamine receptor 2A (Homo sapiens, UniProt P28223); format: functional, cell-based
Note: assay procedure not described here.

Sequence of 5-hydroxytryptamine receptor 2B (P41595 whole entry): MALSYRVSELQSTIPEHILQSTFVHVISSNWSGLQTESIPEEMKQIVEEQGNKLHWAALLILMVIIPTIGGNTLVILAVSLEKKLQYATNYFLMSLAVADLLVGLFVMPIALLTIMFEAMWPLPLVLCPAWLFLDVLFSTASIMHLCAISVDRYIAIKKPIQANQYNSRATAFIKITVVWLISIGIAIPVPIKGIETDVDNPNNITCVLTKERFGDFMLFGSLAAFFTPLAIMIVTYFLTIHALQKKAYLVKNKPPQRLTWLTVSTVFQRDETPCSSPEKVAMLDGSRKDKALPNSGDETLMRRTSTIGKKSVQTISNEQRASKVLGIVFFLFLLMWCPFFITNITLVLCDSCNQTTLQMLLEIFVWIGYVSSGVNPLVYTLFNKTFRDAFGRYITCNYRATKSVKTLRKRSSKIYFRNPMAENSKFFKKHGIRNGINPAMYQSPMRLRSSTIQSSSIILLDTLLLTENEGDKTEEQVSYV
Sequence of Kappa-type opioid receptor (P41145 whole entry): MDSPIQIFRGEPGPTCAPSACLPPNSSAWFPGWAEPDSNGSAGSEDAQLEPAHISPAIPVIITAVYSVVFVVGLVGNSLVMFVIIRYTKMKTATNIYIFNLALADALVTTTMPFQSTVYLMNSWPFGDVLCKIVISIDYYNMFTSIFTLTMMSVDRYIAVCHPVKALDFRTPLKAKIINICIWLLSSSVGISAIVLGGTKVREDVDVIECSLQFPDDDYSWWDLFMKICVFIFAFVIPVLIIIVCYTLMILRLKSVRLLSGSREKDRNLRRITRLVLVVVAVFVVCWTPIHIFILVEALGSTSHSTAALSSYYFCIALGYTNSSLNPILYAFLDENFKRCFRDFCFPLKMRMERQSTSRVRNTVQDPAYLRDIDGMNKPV
T2 sequence (P62813 whole entry): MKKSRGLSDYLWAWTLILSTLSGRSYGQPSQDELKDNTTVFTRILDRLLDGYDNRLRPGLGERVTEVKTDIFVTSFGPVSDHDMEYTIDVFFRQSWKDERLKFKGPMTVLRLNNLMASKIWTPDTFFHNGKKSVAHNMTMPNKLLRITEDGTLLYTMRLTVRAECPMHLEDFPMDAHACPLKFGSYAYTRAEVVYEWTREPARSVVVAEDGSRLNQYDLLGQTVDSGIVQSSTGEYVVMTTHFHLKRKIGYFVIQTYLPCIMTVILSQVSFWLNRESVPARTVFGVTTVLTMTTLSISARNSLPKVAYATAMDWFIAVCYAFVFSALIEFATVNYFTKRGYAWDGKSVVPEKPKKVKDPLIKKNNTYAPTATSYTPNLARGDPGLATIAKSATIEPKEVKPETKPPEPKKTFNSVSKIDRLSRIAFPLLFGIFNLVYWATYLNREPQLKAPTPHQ
Sequence of Cannabinoid receptor 1 (P21554 whole entry): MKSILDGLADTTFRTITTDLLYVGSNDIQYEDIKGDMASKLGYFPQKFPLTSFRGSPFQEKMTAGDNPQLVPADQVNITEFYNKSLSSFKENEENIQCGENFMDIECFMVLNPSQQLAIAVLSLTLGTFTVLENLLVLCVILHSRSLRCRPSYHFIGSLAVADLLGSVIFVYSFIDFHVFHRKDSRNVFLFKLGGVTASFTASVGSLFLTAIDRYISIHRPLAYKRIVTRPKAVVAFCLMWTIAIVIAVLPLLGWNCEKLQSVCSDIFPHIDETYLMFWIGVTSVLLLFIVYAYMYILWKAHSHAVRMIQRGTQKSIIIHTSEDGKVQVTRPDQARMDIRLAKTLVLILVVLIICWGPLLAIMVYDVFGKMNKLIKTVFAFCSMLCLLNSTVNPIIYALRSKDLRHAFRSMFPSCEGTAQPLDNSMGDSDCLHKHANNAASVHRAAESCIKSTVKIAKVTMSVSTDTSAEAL
Sequence of D(3) dopamine receptor (P35462 whole entry): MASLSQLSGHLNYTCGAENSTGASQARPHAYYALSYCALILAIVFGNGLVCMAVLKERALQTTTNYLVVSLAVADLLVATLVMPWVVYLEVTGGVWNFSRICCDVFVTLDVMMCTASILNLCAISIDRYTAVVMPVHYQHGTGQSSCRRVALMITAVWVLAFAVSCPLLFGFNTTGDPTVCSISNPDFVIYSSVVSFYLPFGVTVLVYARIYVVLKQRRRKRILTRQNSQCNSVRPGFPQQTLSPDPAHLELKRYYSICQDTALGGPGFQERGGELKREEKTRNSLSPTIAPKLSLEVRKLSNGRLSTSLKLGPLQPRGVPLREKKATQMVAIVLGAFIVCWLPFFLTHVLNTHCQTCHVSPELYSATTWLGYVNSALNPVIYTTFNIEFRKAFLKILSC
Sequence of Neuronal acetylcholine receptor subunit alpha-4 (P43681 whole entry): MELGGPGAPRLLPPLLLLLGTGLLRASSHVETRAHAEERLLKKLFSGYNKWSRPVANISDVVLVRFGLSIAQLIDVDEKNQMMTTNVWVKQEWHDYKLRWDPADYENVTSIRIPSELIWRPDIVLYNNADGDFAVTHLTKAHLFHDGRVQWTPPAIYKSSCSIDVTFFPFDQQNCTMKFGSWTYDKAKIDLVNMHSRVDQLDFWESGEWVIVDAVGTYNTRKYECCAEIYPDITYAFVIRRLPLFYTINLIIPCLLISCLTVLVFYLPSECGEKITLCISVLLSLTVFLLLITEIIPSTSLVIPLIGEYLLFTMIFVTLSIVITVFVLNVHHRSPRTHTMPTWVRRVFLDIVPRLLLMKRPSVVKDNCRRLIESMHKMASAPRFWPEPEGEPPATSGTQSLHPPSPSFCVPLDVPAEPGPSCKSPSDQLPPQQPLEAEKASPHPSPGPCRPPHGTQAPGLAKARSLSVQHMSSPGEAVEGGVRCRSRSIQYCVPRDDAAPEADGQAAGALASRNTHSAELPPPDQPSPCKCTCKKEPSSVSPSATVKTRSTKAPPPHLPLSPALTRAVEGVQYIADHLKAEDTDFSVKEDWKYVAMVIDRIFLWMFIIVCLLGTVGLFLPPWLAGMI
Sequence of 5-hydroxytryptamine receptor 2A (P28223 whole entry): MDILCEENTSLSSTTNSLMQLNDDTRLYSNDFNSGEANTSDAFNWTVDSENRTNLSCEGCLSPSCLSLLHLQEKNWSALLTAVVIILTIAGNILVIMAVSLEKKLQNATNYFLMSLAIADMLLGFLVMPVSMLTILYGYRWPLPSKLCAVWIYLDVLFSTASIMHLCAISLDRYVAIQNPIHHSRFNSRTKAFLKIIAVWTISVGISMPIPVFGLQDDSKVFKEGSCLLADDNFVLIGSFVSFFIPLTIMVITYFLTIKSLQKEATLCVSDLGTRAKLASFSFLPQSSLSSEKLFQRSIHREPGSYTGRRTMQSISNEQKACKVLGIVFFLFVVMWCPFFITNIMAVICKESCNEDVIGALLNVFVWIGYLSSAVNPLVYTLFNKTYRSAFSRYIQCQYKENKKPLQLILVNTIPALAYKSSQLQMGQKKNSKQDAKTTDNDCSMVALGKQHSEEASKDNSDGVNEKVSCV
Sequence of Muscarinic acetylcholine receptor M3 (P20309 whole entry): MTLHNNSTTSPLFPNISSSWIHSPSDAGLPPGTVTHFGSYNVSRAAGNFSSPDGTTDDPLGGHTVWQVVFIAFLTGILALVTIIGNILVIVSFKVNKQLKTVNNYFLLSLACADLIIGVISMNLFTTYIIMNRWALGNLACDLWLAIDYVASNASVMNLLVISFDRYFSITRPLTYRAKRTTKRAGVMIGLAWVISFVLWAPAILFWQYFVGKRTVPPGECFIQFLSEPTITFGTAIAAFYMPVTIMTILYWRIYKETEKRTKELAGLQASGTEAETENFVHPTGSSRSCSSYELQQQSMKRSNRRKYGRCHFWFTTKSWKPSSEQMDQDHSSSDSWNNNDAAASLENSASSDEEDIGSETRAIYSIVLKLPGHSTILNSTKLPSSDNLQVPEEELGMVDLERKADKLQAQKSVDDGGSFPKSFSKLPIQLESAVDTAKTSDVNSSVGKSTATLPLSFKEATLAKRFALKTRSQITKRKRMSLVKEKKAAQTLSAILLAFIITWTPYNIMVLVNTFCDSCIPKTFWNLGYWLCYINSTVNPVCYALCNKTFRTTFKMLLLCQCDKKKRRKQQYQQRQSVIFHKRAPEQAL
Sequence of Sodium-dependent serotonin transporter (P31645 whole entry): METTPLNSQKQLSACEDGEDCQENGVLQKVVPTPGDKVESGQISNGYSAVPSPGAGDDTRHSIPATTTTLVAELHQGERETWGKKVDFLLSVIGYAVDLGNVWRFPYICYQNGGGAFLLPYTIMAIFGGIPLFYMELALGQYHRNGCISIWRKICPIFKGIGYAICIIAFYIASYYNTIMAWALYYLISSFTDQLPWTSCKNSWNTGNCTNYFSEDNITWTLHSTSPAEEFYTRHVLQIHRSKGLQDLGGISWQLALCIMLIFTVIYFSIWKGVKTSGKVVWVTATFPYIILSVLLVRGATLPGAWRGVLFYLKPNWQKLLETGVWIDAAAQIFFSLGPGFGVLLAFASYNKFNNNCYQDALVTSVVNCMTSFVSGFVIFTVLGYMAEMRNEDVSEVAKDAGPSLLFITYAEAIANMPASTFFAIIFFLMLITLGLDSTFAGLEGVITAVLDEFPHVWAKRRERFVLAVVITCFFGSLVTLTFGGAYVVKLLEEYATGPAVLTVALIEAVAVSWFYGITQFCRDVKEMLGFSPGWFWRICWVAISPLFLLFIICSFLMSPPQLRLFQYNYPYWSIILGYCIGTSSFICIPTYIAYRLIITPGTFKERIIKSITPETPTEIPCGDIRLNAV

| Compound | AC50 [1] [µM] | AC50 [2] [µM] | AC50 [3] [µM] | AC50 [4] [µM] | AC50 (Vasopressin V2 receptor) [µM] | AC50 [5] [µM] | AC50 (Cannabinoid receptor 1) [µM] | AC50 [6] [µM] | AC50 [7] [µM] | AC50 (Endothelin-1 receptor) [µM] | AC50 [8] [µM] | AC50 [9] [µM] | AC50 (D(3) dopamine receptor) [µM] | AC50 [10] [µM] | AC50 [11] [µM] | AC50 [12] [µM] |
| --- | --- | --- | --- | --- | --- | --- | --- | --- | --- | --- | --- | --- | --- | --- | --- | --- |
| CN[C@@H](C)[C@H](O)c1ccccc1 [EPHEDRINE] | > 30 | > 10 | 13 | > 10 | > 30 | > 10 | > 30 | > 10 | > 10 | > 30 | > 10 | > 10 | > 10 | > 10 |  |  |
| C[C@]12CCC(=O)C=C1CC[C@@H]1[C@@H]2CC[C@@]2(C)[C@H]1CC[C@]2(C)O [METHYLTESTOSTERONE] | > 30 | > 30 | > 30 | > 30 | > 30 | > 30 | > 30 | > 30 | 22 | > 30 |  | > 30 | > 30 | > 30 |  |  |
| O=C1NCCN1CCN1CCC(c2cn(-c3ccc(F)cc3)c3ccc(Cl)cc23)CC1 [SERTINDOLE] | > 30 | > 30 | > 30 |  | 27 | 3.7 | > 30 | > 30 | 0.6 | > 30 | 22 |  |  | 17 | 3.4 |  |
| COc1ccc2c(c1)c(CC(=O)OCC(=O)O)c(C)n2C(=O)c1ccc(Cl)cc1 [ACEMETACIN] | > 10 | > 30 | > 30 | > 30 | > 30 | > 30 | > 30 | > 30 | > 30 | > 30 |  | > 30 | > 30 | > 30 |  |  |
| COC(=O)[C@H]1[C@@H](OC(=O)c2ccccc2)C[C@@H]2CC[C@H]1N2C [COCAINE] | > 30 | > 30 | > 30 | > 30 | > 30 | > 30 | > 30 | > 30 | > 30 | > 30 | > 30 | > 30 | > 30 | > 30 |  | > 30 |
| Cc1cc2c(OCC(CNC(C)(C)C)OC(=O)c3ccccc3)cccc2[nH]1 (configuration not stated) [BOPINDOLOL] | > 30 | > 30 | > 30 | > 30 | > 30 | 2.1 | > 30 | > 30 | 19 | > 30 |  | 3 | > 30 | > 30 |  |  |
| Cc1c(C(=O)Nc2ccc(N3C[C@@H](C)O[C@@H](C)C3)nc2)cccc1-c1ccc(OC(F)(F)F)cc1 [SONIDEGIB] | > 30 | > 10 |  |  | > 30 | > 10 |  | > 10 |  | > 30 |  | > 10 |  | > 10 | > 10 |  |
| CN1C(=O)COc2c(C(=O)NC3CN4CCC3CC4)cc(Cl)cc21 (configuration not stated) [AZASETRON] | > 30 | > 30 | > 30 | > 30 | > 30 | > 30 | > 30 | > 30 | > 30 | > 30 |  | > 30 | > 30 | > 30 |  |  |
| CC(C)(Oc1ccc(C2CC2(Cl)Cl)cc1)C(=O)O (configuration not stated) [CIPROFIBRATE] | > 30 | > 30 | > 30 | > 30 | > 30 | > 30 | > 30 | > 30 | > 30 | > 30 |  | > 30 | > 30 | > 30 |  |  |
| C#CCN[C@@H]1CCc2ccccc21 [RASAGILINE] | > 30 | > 30 |  | > 30 | > 30 | > 30 |  | > 30 | > 30 |  | > 30 | 21 | > 30 | > 30 |  | > 30 |
| COc1c(C)c2c(c(O)c1C/C=C(\C)CCC(=O)OCCN1CCOCC1)C(=O)OC2 [MYCOPHENOLATE MOFETIL] | > 30 | > 30 | > 30 | > 30 | > 30 | > 30 | > 30 | > 30 | > 30 | > 30 |  | > 30 | > 30 | > 30 |  |  |
| Cc1c(O)c(=O)ccn1C [DEFERIPRONE] | > 30 | > 30 | > 30 | > 30 | > 30 | > 30 | > 30 | > 30 | > 30 | > 30 |  | > 30 | > 30 | > 30 |  |  |
| TOCOFERSOLAN | > 30 | > 30 | > 30 | > 30 | > 30 | > 30 | > 30 | > 30 | > 30 | > 30 | > 30 | > 30 | > 30 | > 30 |  | > 30 |
| CC/C=C\C/C=C\C/C=C\CCCCCCCC(=O)O [LINOLENIC ACID] | > 30 | > 30 | > 30 | > 30 | > 30 | > 30 | > 30 | > 30 |  | > 30 | > 30 | > 30 | > 30 | > 30 |  | > 30 |
